This assay deals with PI3Kβ (Homo sapiens (Human), UniProt P42338). Briefly: PI3K isoform TR-FRET enzymatic assay (PI3Kβ). Format: biochemical. Particulars: 2× Km ATP, 30 minutes at 25° C. Put shortly: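 IC50 came from four-parameter dose-response fits, normalized between DMSO and 1 μM wortmannin controls. The read-out was TR-FRET (615/665 nm) of PIP3 displacing fluorescent PIP3 from Europium GRP-1 after 10 mM EDTA termination. Compounds were incubated with purified heterodimeric PI3Kβ for 30 min at 25° C.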
Sequence of PI3Kβ (P42338 whole entry, canonical isoform): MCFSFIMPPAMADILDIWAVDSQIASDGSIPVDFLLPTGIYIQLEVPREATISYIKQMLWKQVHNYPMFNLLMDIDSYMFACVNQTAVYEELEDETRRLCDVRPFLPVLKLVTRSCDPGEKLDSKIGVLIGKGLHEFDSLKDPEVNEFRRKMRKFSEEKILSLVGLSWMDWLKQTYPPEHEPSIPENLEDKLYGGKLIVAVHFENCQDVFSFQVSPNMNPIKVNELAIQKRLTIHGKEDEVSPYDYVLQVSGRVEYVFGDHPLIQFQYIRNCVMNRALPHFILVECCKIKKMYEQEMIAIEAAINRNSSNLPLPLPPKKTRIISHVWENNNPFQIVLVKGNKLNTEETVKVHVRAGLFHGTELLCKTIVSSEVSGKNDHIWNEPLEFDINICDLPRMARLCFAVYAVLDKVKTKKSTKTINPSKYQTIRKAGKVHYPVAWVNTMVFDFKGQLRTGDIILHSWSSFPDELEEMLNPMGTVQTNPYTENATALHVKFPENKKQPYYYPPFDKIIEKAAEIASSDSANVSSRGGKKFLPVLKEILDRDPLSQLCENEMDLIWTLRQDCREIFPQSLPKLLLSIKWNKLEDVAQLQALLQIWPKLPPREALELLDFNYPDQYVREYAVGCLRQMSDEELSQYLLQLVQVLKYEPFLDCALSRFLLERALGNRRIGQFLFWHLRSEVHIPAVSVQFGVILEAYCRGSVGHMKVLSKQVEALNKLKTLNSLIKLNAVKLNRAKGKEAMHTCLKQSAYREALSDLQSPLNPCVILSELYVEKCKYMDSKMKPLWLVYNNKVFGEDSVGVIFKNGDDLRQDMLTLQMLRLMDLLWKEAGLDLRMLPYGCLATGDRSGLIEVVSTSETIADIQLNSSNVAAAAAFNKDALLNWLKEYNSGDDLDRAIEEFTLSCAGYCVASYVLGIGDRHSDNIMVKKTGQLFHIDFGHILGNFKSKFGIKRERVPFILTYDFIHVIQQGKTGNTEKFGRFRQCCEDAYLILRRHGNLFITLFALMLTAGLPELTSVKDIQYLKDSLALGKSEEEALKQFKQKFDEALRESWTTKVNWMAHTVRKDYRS
Sequence of PI3Kβ (P27986 whole entry partner, canonical isoform): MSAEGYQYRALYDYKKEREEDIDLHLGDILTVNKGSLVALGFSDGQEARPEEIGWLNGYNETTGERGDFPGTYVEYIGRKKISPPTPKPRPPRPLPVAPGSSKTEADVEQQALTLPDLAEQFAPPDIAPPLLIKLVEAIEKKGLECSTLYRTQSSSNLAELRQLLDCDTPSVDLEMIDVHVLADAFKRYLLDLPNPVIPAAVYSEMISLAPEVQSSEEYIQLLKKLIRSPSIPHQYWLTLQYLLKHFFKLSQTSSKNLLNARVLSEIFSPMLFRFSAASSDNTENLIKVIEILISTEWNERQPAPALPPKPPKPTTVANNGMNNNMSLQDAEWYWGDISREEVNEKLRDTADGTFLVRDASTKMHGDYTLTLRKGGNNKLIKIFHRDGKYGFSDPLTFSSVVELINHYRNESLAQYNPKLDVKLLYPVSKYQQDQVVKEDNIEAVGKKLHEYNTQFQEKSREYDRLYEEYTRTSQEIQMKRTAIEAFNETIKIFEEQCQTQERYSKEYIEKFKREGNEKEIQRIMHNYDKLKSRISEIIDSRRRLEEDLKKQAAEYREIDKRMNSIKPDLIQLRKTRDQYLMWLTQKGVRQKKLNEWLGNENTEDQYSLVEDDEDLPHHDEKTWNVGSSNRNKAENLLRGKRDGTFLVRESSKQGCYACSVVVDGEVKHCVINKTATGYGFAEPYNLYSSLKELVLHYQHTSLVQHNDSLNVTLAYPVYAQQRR

In the case of `CCCc1nc2c(-c3nnc[nH]3)cc(N3CCOCC3)cc2n1-c1ccnc2c(F)c(F)ccc12` [Example 49, 4-(1-(7,8-difluoroquinolin-4-yl)-2-propyl-4-(4H-1,2,4-triazol-3-yl)-1H-benzo[d]imidazol-6-yl)morpholine], the IC50 (as a rule, the point on the concentration scale where inhibition reaches its midpoint) was 0.018 µM.
Turning to `Cc1nc2c(-c3cc[nH]c3)cc(N3CCOCC3)cc2n1-c1ccnc2c(Cl)cccc12` [Example 263, 4-[3-(8-chloroquinolin-4-yl)-2-methyl-7-(1H-pyrrol-3-yl)benzimidazol-5-yl]morpholine], the IC50 came to 0.013 µM.
`CCCc1nc2c(-c3nnc(C)[nH]3)cc(N3CCOCC3)cc2n1-c1ccnc2cc(F)ccc12` [Example 21, 4-(1-(7-fluoroquinolin-4-yl)-4-(5-methyl-4H-1,2,4-triazol-3-yl)-2-propyl-1H-benzo[d]imidazol-6-yl)morpholine] had an IC50 of 0.13 µM.
For the compound `Cc1nc2c(-c3nnc[nH]3)cc(N3CCOCC3)cc2n1-c1c(Cl)cnc2c(F)cccc12` [Example 27, 4-[3-(3-chloro-8-fluoroquinolin-4-yl)-2-methyl-7-(4H-1,2,4-triazol-3-yl)benzimidazol-5-yl]morpholine], it took 0.056 µM to reach half-maximal inhibition (IC50).
Then `Cc1nc2c(-c3nnc[nH]3)cc(N3CCOCC3)cc2n1-c1c(Cl)cnc2ccccc12` [Example 128, 4-[3-(3-chloroquinolin-4-yl)-2-methyl-7-(4H-1,2,4-triazol-3-yl)benzimidazol-5-yl]morpholine], with 0.051 µM.
In the case of `Clc1cccc2c(-n3c(CC4CC4)nc4c(-c5ncco5)cc(N5CCOCC5)cc43)ccnc12` [Example 220, 4-[3-(8-chloroquinolin-4-yl)-2-(cyclopropylmethyl)-7-(1,3-oxazol-2-yl)benzimidazol-5-yl]morpholine], 0.007 µM corresponded to half-maximal inhibition (IC50). This IC50 is about 7.3-fold lower than that of the compound before.
In the case of `Fc1ccc(Cl)c2nccc(-n3c(C4CC4)nc4c(-c5cnc(Cl)[nH]5)cc(N5CCOCC5)cc43)c12` [Example 307, 4-[3-(8-chloro-5-fluoroquinolin-4-yl)-7-(2-chloro-1H-imidazol-5-yl)-2-cyclopropylbenzimidazol-5-yl]morpholine], it took 0.008 µM to reach half-maximal inhibition (IC50).
The figure for `Cc1nnc(-c2cc(N3CCOCC3)cc3c2nc(C)n3-c2ccnc3c(Cl)cc(F)cc23)[nH]1` [Example 18, 4-(1-(8-chloro-6-fluoroquinolin-4-yl)-2-methyl-4-(5-methyl-4H-1,2,4-triazol-3-yl)-1H-benzo[d]imidazol-6-yl)morpholine] is 0.063 µM.
Then `CCCc1nc2c(-c3ncco3)cc(N3CCOCC3)cc2n1-c1ccnc2c(F)ccc(F)c12` (atropisomer, axis not shown) [Compound 357, 4-[3-(5,8-difluoroquinolin-4-yl)-7(1,3-oxazol-2-yl)-2-propylbenzimidazol-5-yl]morpholine], with 0.005 µM; and `CCc1c(C)nc2ccccc2c1-n1cnc2c(-c3nnc[nH]3)cc(N3CCOCC3)cc21` [Example 71, 4-[3-(3-ethyl-2-methylquinolin-4-yl)-7-(4H-1,2,4-triazol-3-yl)benzimidazol-5-yl]morpholine], with 0.023 µM.
Take `Cc1nnc(-c2cc(N3CCOCC3)cc3c2nc(C)n3-c2ccnc3c(C(F)F)cccc23)[nH]1` [Example 92, 4-[3-[8-(difluoromethyl)quinolin-4-yl]-2-methyl-7-(5-methyl-4H-1,2,4-triazol-3-yl)benzimidazol-5-yl]morpholine]: the IC50 was 0.046 µM.
`Clc1cccc2c(-n3c(C4CCCO4)nc4c(-c5ccccc5)cc(N5CCOCC5)cc43)ccnc12` (stereo not drawn) [Example 198] gave an IC50 of 0.12 µM.
Then `Cc1nc2c(-c3nnc(Cl)[nH]3)cc(N3CCOCC3)cc2n1-c1ccnc2c(Cl)cccc12` (atropisomer, axis not shown) [Compound 358, 4-[3-(8-chloroquinolin-4-yl)-7-(5-chloro-4H-1,2,4-triazol-3-yl)-2-methylbenzimidazol-5-yl]morpholine], with 0.01 µM; and `Cc1n[nH]c(-c2cc(N3CCOCC3)cc3c2nc(C)n3-c2c(C)cnc3c(Cl)cccc23)n1` [Example 78, 4-[3-(8-chloro-3-methylquinolin-4-yl)-2-methyl-7-(3-methyl-1H-1,2,4-triazol-5-yl)benzimidazol-5-yl]morpholine], with 0.027 µM.
The compound `Clc1cccc2c(-n3c(-c4ccncc4)nc4c(-c5nnc[nH]5)cc(N5CCOCC5)cc43)ccnc12` [Example 15, 4-(1-(8-chloroquinolin-4-yl)-2-(pyridin-4-yl)-4-(4H-1,2,4-triazol-3-yl)-1H-benzo[d]imidazol-6-yl)morpholine] registered an IC50 of 0.049 µM.
The figure for `Cc1nnc(-c2cc(N3CCOCC3)cc3c2nc(C)n3-c2c(Cl)cnc3c(Cl)cccc23)[nH]1` [Example 157, 4-(1-(3,8-dichloroquinolin-4-yl)-2-methyl-4-(5-methyl-4H-1,2,4-triazol-3-yl)-1H-benzo[d]imidazol-6-yl)morpholine] is 0.047 µM; for `CCCc1nc2c(-c3ncco3)cc(N3CCOCC3)cc2n1-c1ccnc2c(F)ccc(F)c12` (atropisomer, axis not shown) [Compound 356, 4-[3-(5,8-difluoroquinolin-4-yl)-7-(1,3-oxazol-2-yl)-2-propylbenzimidazol-5-yl]morpholine] it is over 10 µM.
For `CCCc1nc2c(-c3nnc(C)[nH]3)cc(N3CCOCC3)cc2n1-c1ccnc2c(C)ccc(F)c12` [Example 43, 4-(1-(5-fluoro-8-methylquinolin-4-yl)-4-(5-methyl-4H-1,2,4-triazol-3-yl)-2-propyl-1H-benzo[d]imidazol-6-yl)morpholine], 0.02 µM corresponded to half-maximal inhibition (IC50). In other words, the double-digit nanomolar range.
The compound `Clc1cccc2c(-n3c(C4CCOC4)nc4c(-c5nnc[nH]5)cc(N5CCOCC5)cc43)ccnc12` (stereo not drawn) [Example 9, 4-(1-(8-chloroquinolin-4-yl)-2-(tetrahydrofuran-3-yl)-4-(4H-1,2,4-triazol-3-yl)-1H-benzo[d]imidazol-6-yl)morpholine] came in with an IC50 of 0.033 µM.
For the compound `Cc1nc2c(-c3cccs3)cc(N3CCOCC3)cc2n1-c1ccnc2c(Cl)cccc12` [Example 271, 4-[3-(8-chloroquinolin-4-yl)-2-methyl-7-thiophen-2-ylbenzimidazol-5-yl]morpholine], inhibition was half-maximal at 0.046 µM (IC50).
Take `CCc1nc2c(-c3ncc[nH]3)cc(N3CCOCC3)cc2n1-c1ccnc2c(F)ccc(F)c12` (atropisomer, axis not shown) [Compound 370, 4-(1-(5,8-difluoroquinolin-4-yl)-2-ethyl-4-(1H-imidazol-2-yl)-1H-benzo[d]imidazol-6-yl)morpholine]: the IC50 came to 0.013 µM.
`Cc1nc2c(-c3cccc(C(N)=O)c3)cc(N3CCOCC3)cc2n1-c1ccnc2c(-c3cccc(C(N)=O)c3)cccc12` [Example 322, 3-[4-[4-(3-carbamoylphenyl)-2-methyl-6-morpholin-4-ylbenzimidazol-1-yl]quinolin-8-yl]benzamide] gave an IC50 of over 10 µM.
As to `Cc1nc2c(-c3ccoc3)cc(N3CCOCC3)cc2n1-c1ccnc2c(Cl)cccc12` [Example 275, 4-[3-(8-chloroquinolin-4-yl)-7-(furan-3-yl)-2-methylbenzimidazol-5-yl]morpholine], the IC50 worked out at 0.088 µM.
The figure for `Fc1c(N2CCOCC2)cc(-c2nnc[nH]2)c2ncn(-c3ccnc4c(Cl)cccc34)c12` [Example 149, 4-(1-(8-chloroquinolin-4-yl)-7-fluoro-4-(4H-1,2,4-triazol-3-yl)-1H-benzo[d]imidazol-6-yl)morpholine] is 0.1 µM; for `Fc1ccc(Cl)c2c(-n3cnc4c(-c5nnc[nH]5)cc(N5CCOCC5)cc43)ccnc12` [Example 96, 4-[3-(5-chloro-8-fluoroquinolin-4-yl)-7-(4H-1,2,4-triazol-3-yl)benzimidazol-5-yl]morpholine] it is 0.024 µM.
Compound `COCCc1nc2c(-c3nnc[nH]3)cc(N3CCOCC3)cc2n1-c1ccnc2c(F)cccc12` [Example 42, 4-(1-(8-fluoroquinolin-4-yl)-2-(2-methoxyethyl)-4-(4H-1,2,4-triazol-3-yl)-1H-benzo[d]imidazol-6-yl)morpholine] returned an IC50 of 0.02 µM. The IC50 values of the last two compounds are within 1.5-fold of each other.
Then `Cc1cnc2c(Cl)cccc2c1-n1c(C)nc2c(-c3nnc[nH]3)cc(N3CCOCC3)cc21` [Example 68, 4-[3-(8-chloro-3-methylquinolin-4-yl)-2-methyl-7-(4H-1,2,4-triazol-3-yl)benzimidazol-5-yl]morpholine], with 0.008 µM; and `Cc1nc2c(-c3ccc(Cl)s3)cc(N3CCOCC3)cc2n1-c1ccnc2c(Cl)cccc12` [Example 267, 4-[3-(8-chloroquinolin-4-yl)-7-(5-chlorothiophen-2-yl)-2-methylbenzimidazol-5-yl]morpholine], with 2.1 µM.
The figure for `Cc1cccc2nccc(-n3c(C)nc4c(-c5nnc[nH]5)cc(N5CCOCC5)cc43)c12` [Example 83, 4-[2-methyl-3-(5-methylquinolin-4-yl)-7-(4H-1,2,4-triazol-3-yl)benzimidazol-5-yl]morpholine] is 0.019 µM.
Then `Cc1nc2c(-c3nnc[nH]3)cc(N3CCOCC3)cc2n1-c1cc(C#N)nc2ccccc12` [Example 67, 4-[2-methyl-6-morpholin-4-yl-4-(4H-1,2,4-triazol-3-yl)benzimidazol-1-yl]quinoline-2-carbonitrile], with 0.099 µM.
In turn, `Cc1nc2c(-c3cnc[nH]3)cc(N3CCOCC3)cc2n1-c1ccnc2c(F)ccc(F)c12` [Example 335, 4-[3-(5,8-difluoroquinolin-4-yl)-7-(1H-imidazol-5-yl)-2-methylbenzimidazol-5-yl]morpholine] came in with an IC50 of 0.015 µM. This IC50 lies about 6.6-fold lower than the previous one.
`CCCc1nc2c(-c3ncco3)cc(N3CCOCC3)cc2n1-c1ccnc2c(Cl)cccc12` [Example 227, 4-[3-(8-chloroquinolin-4-yl)-7-(1,3-oxazol-2-yl)-2-propylbenzimidazol-5-yl]morpholine] came in with an IC50 of 0.01 µM.
Then `Cc1nc2c(-c3nnc(Cl)[nH]3)cc(N3CCOCC3)cc2n1-c1ccnc2c(Cl)cccc12` (atropisomer, axis not shown) [Compound 359, 4-[3-(8-chloroquinolin-4-yl)-7-(5-chloro-4H-1,2,4-triazol-3-yl)-2-methylbenzimidazol-5-yl]morpholine], with 1.2 µM.
